Assay results reported in PMC12120022, “Discovery and chemical optimisation of a potent, Bi-cyclic antimicrobial inhibitor of Escherichia coli PBP3” (Communications Biology, 2025).
Converted amounts (≈) assume the structure as drawn. Where two headings read alike, the source gives them in different places. Each block holds one molecule with its values, some of them ahead of it. Where a SMILES comes first, the peptide text is derived from it.

Experiments:
EcPBP3 [1] = target: T1, EcPBP3 (Escherichia coli, UniProt P0AD68); experiment: Fluorescence polarisation competition assay with BOCILLIN-FL as tracer; assay type: binding; details: competition format, NB, non-binder (100 μM top concentration)
T1 construct: For assays, selections and SPR a construct with residues 60–588 which has the N-terminal domain, but not the transmembrane helix, was used; made in house
T1 sequence (P0AD68 60-588): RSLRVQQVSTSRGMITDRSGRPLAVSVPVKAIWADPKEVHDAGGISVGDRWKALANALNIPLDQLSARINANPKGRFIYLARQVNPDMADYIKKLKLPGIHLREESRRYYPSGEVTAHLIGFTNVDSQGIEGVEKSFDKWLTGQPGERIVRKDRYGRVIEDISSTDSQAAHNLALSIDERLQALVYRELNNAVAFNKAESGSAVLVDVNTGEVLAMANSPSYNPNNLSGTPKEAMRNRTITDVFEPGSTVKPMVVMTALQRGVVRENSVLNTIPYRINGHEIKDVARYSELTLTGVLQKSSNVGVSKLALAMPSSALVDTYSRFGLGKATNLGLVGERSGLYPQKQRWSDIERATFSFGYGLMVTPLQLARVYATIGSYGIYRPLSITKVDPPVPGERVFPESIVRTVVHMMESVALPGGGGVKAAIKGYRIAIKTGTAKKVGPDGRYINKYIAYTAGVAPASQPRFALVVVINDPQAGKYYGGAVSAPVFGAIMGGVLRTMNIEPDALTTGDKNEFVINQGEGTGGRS

EcPBP3 [2] = target: T1, EcPBP3; experiment: Fluorescence polarisation competition assay with fluorescent Bicycle tracer (tracer 1 / BCY12820); assay type: binding; details: protein 9.4 nM sets sensitivity limit, top concentration 5 µM, read-out: Ki (nM) by fluorescence polarisation with tracer 1 (BCY12820 as tracer), Geometric mean (Lower 95% CI; Upper 95% CI, n=number of values)
Summary of the method: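 Unlabelled peptide competes with fluorescent Bicycle tracer (1 nM, as added) for EcPBP3 (9.4 nM, as added) in 10 mM HEPES, 2% glycerol, 300 mM NaCl, pH 8.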

EcPBP3 [3] = target: T1, EcPBP3; experiment: SPR binding assay on immobilised EcPBP3; details: 37 °C, kinetic fitting; NB = no binding at 2500 nM (Tables S-4, S-5) or 5000 nM (Table 1); read-out: Kd (nM) by SPR (geomean)
Summary of the method: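 EcPBP3 amine-coupled to CM5 chip (1500-2500 RU); compounds injected at 37 °C in 10 mM HEPES pH 8.0, 200 mM NaCl, 0.05% Tween-20, 2% DMSO, 50 μL min^–1, 150 s contact, 2400 s dissociation. Double-referenced sensorgrams kinetically fitted for Kd; geometric mean of ≥2 biological replicates.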

E. coli GKCW101 (WT) = details: caMHB; biological replicates or their range
Protocol: (§1) To evaluate the engagement of EcPBP3 by a bicyclic peptide in whole cells lacking the outer membrane permeability barrier, peptides were screened in ‘hyperporinated’ E. coli strains in which a constitutively open FhuA pore (FhuAΔC/Δ4L, lacking N-terminal cork domain and external loops) was chromosomally expressed under control of an arabinose-inducible promoter.
(§2) Minimal inhibition concentration (MIC) assays were performed in accordance with CLSI standards, using cation-adjusted Mueller Hinton broth (caMHB; Sigma Aldrich) unless otherwise specified. Induction of pore expression in hyperporinated strains E. coli GKCW101 and GKCW102 was performed by addition of 0.1% (w/v) L-arabinose to cultures at OD600 ~ 0.3, with caMHB as the culture medium.

E. coli GKCW102 (EcPore) = details: caMHB, biological replicates or their range
Protocol: as §1, §2

E. coli ATCC 25922 = experiment: MIC, wild-type strain; assay type: cell-based, Escherichia coli; details: MHB; biological replicates or their range
Protocol: as §2

PBPs in E. coli = experiment: Bocillin FL staining of PBPs extracted from bacterial membranes; assay type: binding, E. coli strain DC2; details: peptides at 3 µM, membranes of E. coli DC2
Protocol: Staining of PBPs extracted from bacterial membranes with Bocillin FL was used to determine the binding of peptide 2 (and its all-D analogue) to other PBPs in E. coli[8].
Method was adapted from that described by Kocaoglu and Carlson[8]. E. coli strain DC2 cells were grown overnight at 37 °C then diluted 100-fold and allowed to grow at 37 °C to an OD600 of 0.5 in Lysogeny broth (LB). The cells were then centrifuged (3220 x g for 10 min at room temperature) and washed once in PBS (pH 7.4) then pelleted and resuspended in ice-cold PBS. Cells were sonicated (Fisherbrand™ Model 505 Sonic Dismembrator) on ice for five 10 s intervals with 15 s cooling time in between rounds. The membranes were collected by centrifugation (21,000 x g for 15 min at 4 °C) and resuspended the pellet in 100 µL PBS using a blunt needle. The resuspended membranes were incubated with the indicated compound for 15 min at room temperature then 10 µg ml^–1 BOCILLIN-Fl (Invitrogen) was added and reacted with the resuspended membranes for 10 min. […] The total protein content of each condition was normalised to 2.5 mg ml^–1 by measuring the absorbance at A280 and adjusting where necessary with the addition of PBS. […] Following fluorescence imaging, the gel was stained with InstantBlue Ultrafast protein stain (Abcam), washed twice in water and imaged in brightfield with an iBright FL1500.

[4] = system: Acinetobacter baumannii AR0275; experiment: MIC; assay type: cell-based; details: Acinetobacter baumannii, AR0275; caMHB; replicates listed
Protocol: as §2

[5] = system: Citrobacter freundii AR0116; experiment: MIC; assay type: cell-based; details: Citrobacter freundii, AR0116; caMHB; replicates listed
Protocol: as §2

[6] = system: Enterobacter cloacae AR0038; experiment: MIC; assay type: cell-based; details: Enterobacter cloacae, AR0038; caMHB; replicates listed
Protocol: as §2

[7] = system: Escherichia coli ATCC BAA-2469; experiment: MIC; assay type: cell-based; details: Escherichia coli, ATCCBAA2469; caMHB; replicates listed
Protocol: as §2

[8] = system: Escherichia coli NCTC 13441; experiment: MIC; assay type: cell-based; details: Escherichia coli, NCTC13441; caMHB; replicates listed
Protocol: as §2

[9] = system: Klebsiella pneumoniae B454; experiment: MIC; assay type: cell-based; details: Klebsiella pneumoniae, B454; caMHB; replicates listed
Protocol: as §2

[10] = system: Klebsiella pneumoniae KPNIH1; experiment: MIC; assay type: cell-based; details: caMHB, replicates listed
Protocol: as §2

Proteus mirabilis AR159 = experiment: MIC; assay type: cell-based; details: Proteus mirabilis, AR159; caMHB; replicates listed
Protocol: as §2

[11] = system: Pseudomonas aeruginosa NCTC 13437; experiment: MIC; assay type: cell-based; details: Pseudomonas aeruginosa, NCTC13437; caMHB; replicates listed
Protocol: as §2

Mouse blood stability = assay type: in vitro ADME, CD-1 mice; details: CD-1, mouse, whole blood (EDTA as anticoagulant), 37 °C, SAR peptides, read-out: Blood stability (t1/2) (converted)
Protocol: Stability assays were performed using freshly collected matrices from CD-1 mice, with anticoagulant as stated per dataset. Compound stocks in DMSO were tested at 5 μM final concentration (0.5% (v/v) DMSO). Compounds were incubated in blood or plasma at 37 °C for 24 h, with sampling at 0, 1, 2, 4, 6 and 24 h. Samples were prepared via protein precipitation using organic solvent containing internal standard, and analyzed by LC-MS/MS. Compound remaining was quantified based on the ratio of analyte to internal standard, and the half-life (t1/2) was calculated from a log linear plot of % remaining versus time.

SMILES: CC(C)[C@@H]1NC(=O)[C@H](Cc2c[nH]c3ccccc23)NC(=O)[C@@H]2CCCN2C(=O)[C@@H]2CSCCC(=O)N3CN(CN(C3)C(=O)CCSC[C@H](NC(=O)[C@H](C)N)C(=O)N[C@@H](CO)C(=O)N[C@@H](Cc3ccccc3)C(=O)N3CCC[C@H]3C(=O)N[C@@H](CCCCN)C(=O)N2)C(=O)CCSC[C@@H](C(=O)N[C@@H](C)C(N)=O)NC(=O)CNC(=O)[C@H](CCC(=O)O)NC1=O [Peptide 2]
IC50 (nM) by fluorescence polarisation with Bocillin FL as tracer, Geometric mean (Lower 95% CI of geo. Mean; Upper 95% CI of geo. Mean, n=number of values) (EcPBP3 [1]): showed binding to EcPBP3
IC50 (EcPBP3 [1]; read-out: IC50 (nM) by fluorescence polarisation with Bocillin FL as tracer, Geometric mean (Lower 95% CI of geo. Mean; Upper 95% CI of geo. Mean, n=number of values)): 602 nM
Ki (EcPBP3 [2]): < 9 nM
Kd (EcPBP3 [3]): 5.23 nM
MIC E. coli GKCW101 (WT) (E. coli GKCW101 (WT)): > 128 µg/mL
MIC E. coli GKCW102 (EcPore) (E. coli GKCW102 (EcPore)): 0.5 to 2 µg/mL
MIC E. coli GKCW102 (EcPore) (E. coli GKCW102 (EcPore); listed as peptide 2): 0.5 to 2 µg/mL
MIC E. coli ATCC 25922 (E. coli ATCC 25922): > 16 µg/mL
Binding to other PBPs in E. coli (Bocillin FL staining) (PBPs in E. coli): bound only to the active site of E. coli PBP3

MIC [4]: 2.2 µg/mL (≈ 6.09 µM)
MIC [5]: > 2 µg/mL
MIC [6]: > 2 µg/mL
MIC [7]: > 2 µg/mL
MIC [8]: > 2 µg/mL
MIC [9]: > 2 µg/mL
MIC [10]: > 2 µg/mL
MIC (Proteus mirabilis AR159): 2.2 µg/mL (≈ 6.09 µM)
MIC [11]: 2.2 µg/mL (≈ 6.09 µM)
SMILES: C[C@H]1COc2c(N3CCN(C)CC3)c(F)cc3c(=O)c(C(=O)O)cn1c23 [Levofloxacin, reference compound]

SMILES: CC(C)[C@@H]1NC(=O)[C@H](Cc2c[nH]c3ccccc23)NC(=O)[C@@H]2CCCN2C(=O)[C@@H]2CSCCC(=O)N3CN(CN(C3)C(=O)CCSC[C@H](N)C(=O)N[C@@H](CO)C(=O)N[C@@H](Cc3ccccc3)C(=O)N3CCC[C@H]3C(=O)N[C@@H](CCCCNC(=N)N)C(=O)N2)C(=O)CCSC[C@@H](C(N)=O)NC(=O)CNC(=O)[C@H](CCC(=O)O)NC1=O [Peptide 72, CSFP[HArg]CPWVEGC] (HELM PEPTIDE1{C.S.F.P.[N=C(N)NCCCC[C@H](N[*:1])C(=O)[*:2]].C.P.W.V.E.G.C.[am]}|CHEM1{[O=C(CC[*:1])N1CN(C(=O)CC[*:2])CN(C(=O)CC[*:3])C1]}$PEPTIDE1,CHEM1,1:R3-1:R1|PEPTIDE1,CHEM1,6:R3-1:R2|PEPTIDE1,CHEM1,12:R3-1:R3$$$V2.0)
half-life at 5 μM (Mouse blood stability): 3 h
